Laboratory results published in patent publication EP0907632B1, “INHIBITION OF MATRIX METALLOPROTEASES BY SUBSTITUTED PHENETHYL COMPOUNDS” (Bayer Corporation, priority 1996, dated 1997).

Legend:
[1] = molecular target: T1, MMP-3 (Homo sapiens, UniProt P08254); assay type: biochemical; settings: 6 µM P218 substrate, pH 6.5, 25 min at 37°C; calculated from IC50; read-out: MMP-3 Kf
T1 construct: made in house; host or cells: CHO cells
Text: (§1) The P218 quenched fluorescence assay (Microfluorometric Profiling Assay) is a modification of that originally described by Knight, et al., FEBS Lett. 296, 263, 1992 for a related substance and a variety of matrix metalloproteinases (MMPs) in cuvettes. The assay was run with each invention compound and the three MMPs, Mmp-3, MMP-9 and MMP-2, analyzed in parallel, adapted as follows for a 96-well microtiter plate and a Hamilton AT® workstation. P218 Fluorogenic Substrate: P218 is a synthetic substrate containing a 4-acetyl-7-methoxycoumarin (MCA) group in the N-terminal position and a 3-[2, 4-dinitrophenyl]-L-2,3-diaminopropionyl (DPA) group internally. This is a modification of a peptide reported by Knight (1992) that was used as a substrate for matrix metalloproteinases. Once the P218 peptide is cleaved (putative clip site at the Ala-Leu bond), the fluorescence of the MCA group can be detected on a fluorometer with excitation at 328 nm and emission at 393 nm. P218 is currently being produced BACHEM exclusively for Bayer. P218 has the structure: H-MCA-Pro-Lys-Pro-Leu-Ala-Leu-DPA-Ala-Arg-NH2 (MW 1332.2)
Recombinant Human CHO Pro-MMP-3: Human CHO pro-stromelysin-257 (pro-MMP-3) was expressed and purified as described by Housley, et al., J. Biol. Chem. 268, 4481, 1993.
Activation of Pro-MMP-3 Pro-MMP-3 at 1.72 µM (100 µg/mL) in 5 mM Tris at pH 7.5, 5 mM CaCl2, 25 mM NaCl, and 0.005% Brij-35 (MMP-3 activation buffer) was activated by incubation with TPCK (N-tosyl-(L)-phenylalanine chloromethyl ketone) trypsin (1:100 w/w to pro-MMP-3) at 25 °C for 30 min. The reaction was stopped by addition of soybean trypsin inhibitor (SBTI: 5:1 w/w to trypsin concentration). This activation protocol results in the formation of 45 kDa active MMP-3, which still contains the C-terminal portion of the enzyme.
(§2) Hamiltion Microlab AT P!us: The MMP-Profiling Assay is performed robotically on a Hamilton MicroLab AT Plus®. The Hamilton is programmed to: (1) serially dilute up to 11 potential inhibitors automatically from a 2.5 mM stock in 100% DMSO; (2) distribute substrate followed by inhibitor into a 96 well Cytofluor plate; and (3) add a single enzyme to the plate with mixing to start the reaction. Subsequent plates for each additional enzyme are prepared automatically by beginning the program at the substrate addition point, remixing the diluted inhibitors and beginning the reaction by addition of enzyme. In this way, all MMP assays were done using the same inhibitor dilutions.
(§3) Millipore Cytofluor II. Following incubation, the plate was read on a Cytofluor II fluorometric place reader with excitation at 340 nm and emission at 395 nm with the gain set at 80.
(§4) Microfluorometric Reaction Buffer (MRB): Dilution of test compounds, enzymes, and P218 substrate for the microfluorometric assay were made in microfluorometric reaction buffer consisting of 50 mM 2-(N-morpholino)ethanesulfonic acid (MES) at pH 6.5 with 10 mM CaCl2, 150 mM NaCl, 0.005% Brij-35 and 1% DMSO.
(§5) MMP Microfluorometric Profiling Assay. The assay is done with a final substrate concentration of 6 µM P218 and approximately .5 to .8 nM MMP with variable drug concentrations. The Hamilton is programmed to serially dilute up to 11 compounds from a 2.5 mM stock (100% DMSO) to 10x the final compounds concentrations in the assay. Initially, the instrument delivers various amounts of microfluoromentric reaction buffer (MRB) to a 96 tube rack of 1 ml Marsh dilution tubes. The instrument then picks up 20 µl of inhibitor (2.5 mM) from the sample rack and mixes it with a buffer in row A of the Marsh rack, resulting in a 50 µM drug concentration. The inhibitors are then serially diluted to 10, 5, 1, .2, .05 and .01 µM. Position 1 on the sample rack contains only DMSO for the "enzyme-only" wells in the assay, which results in no inhibitor in column 1, rows A through H. The instrument then distributes 107 µl of P218 substrate (8.2 µM in MRB) to a single 96 well cytofluor microtiter plate. […]

[2] = molecular target: T2, MMP-9 (Homo sapiens, UniProt P14780); assay type: biochemical; settings: 6 µM P218 substrate, pH 6.5, 25 min at 37°C; calculated from IC50; read-out: MMP-9 Kf
T2 construct: made in house
T2 sequence (P14780 107-707 limits assumed): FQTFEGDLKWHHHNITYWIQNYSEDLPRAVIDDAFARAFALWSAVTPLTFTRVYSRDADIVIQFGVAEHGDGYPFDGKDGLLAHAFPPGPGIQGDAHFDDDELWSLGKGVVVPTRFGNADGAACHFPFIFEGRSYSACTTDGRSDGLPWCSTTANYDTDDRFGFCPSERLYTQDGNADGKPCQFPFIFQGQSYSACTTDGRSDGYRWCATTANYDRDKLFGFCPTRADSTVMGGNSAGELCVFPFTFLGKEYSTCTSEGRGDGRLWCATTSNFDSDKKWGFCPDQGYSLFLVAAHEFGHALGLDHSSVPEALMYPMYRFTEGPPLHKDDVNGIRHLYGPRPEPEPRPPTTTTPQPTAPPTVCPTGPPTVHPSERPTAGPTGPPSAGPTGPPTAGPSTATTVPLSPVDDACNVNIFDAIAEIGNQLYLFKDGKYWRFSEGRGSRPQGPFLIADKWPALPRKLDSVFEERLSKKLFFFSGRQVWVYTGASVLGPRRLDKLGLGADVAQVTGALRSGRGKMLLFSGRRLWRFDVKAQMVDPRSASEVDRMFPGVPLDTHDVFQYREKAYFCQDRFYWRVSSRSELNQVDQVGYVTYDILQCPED
Text: as §1
Recombinant Human Pro-MMP-9: Human pro-gelatinase B (pro-MMP-9) derived from U937 cDNA as described by Wilhelm, et al. J. Biol. Chem. 264, 17213, 1989 was expressed as the full-length form using a baculovirus protein expression system. The pro-enzyme was purified using methods previously described by Hibbs, et al. J. Biol. Chem. 260, 2493, 1984.
Activation of Pro-MMP-9: […] 20 µg/mL in 50 mM Tris at pH 7.4, 10mM CaCl2, 150 mM NaCl, and 0.005% Brij-35 (MMP-9 activation buffer) was activated by incubation with 0.5 mM p-aminophenylmercuric acetate (APMA) for 3.5 h at 37 °C. The enzyme was dialyzed against the same buffer to remove the APMA.
as §2, §3, §4, §5

[3] = molecular target: T3, MMP-2 (Homo sapiens, UniProt P08253); assay: biochemical
T3 sequence (P08253 110-660): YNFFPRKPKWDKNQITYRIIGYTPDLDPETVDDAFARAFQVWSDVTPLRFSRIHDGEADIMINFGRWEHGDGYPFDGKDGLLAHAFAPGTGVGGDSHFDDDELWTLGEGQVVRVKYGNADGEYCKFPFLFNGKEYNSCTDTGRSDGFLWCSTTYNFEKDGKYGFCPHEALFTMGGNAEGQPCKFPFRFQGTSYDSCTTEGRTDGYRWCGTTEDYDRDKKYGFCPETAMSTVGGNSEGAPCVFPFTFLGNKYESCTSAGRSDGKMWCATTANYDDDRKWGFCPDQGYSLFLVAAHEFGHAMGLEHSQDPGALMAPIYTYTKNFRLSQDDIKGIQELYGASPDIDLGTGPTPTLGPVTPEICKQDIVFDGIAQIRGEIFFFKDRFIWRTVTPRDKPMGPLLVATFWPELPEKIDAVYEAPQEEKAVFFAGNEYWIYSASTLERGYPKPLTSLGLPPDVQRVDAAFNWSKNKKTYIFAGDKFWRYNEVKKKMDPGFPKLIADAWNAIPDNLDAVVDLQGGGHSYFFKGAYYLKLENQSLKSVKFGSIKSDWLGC

T1 sequence (P08254 100-477): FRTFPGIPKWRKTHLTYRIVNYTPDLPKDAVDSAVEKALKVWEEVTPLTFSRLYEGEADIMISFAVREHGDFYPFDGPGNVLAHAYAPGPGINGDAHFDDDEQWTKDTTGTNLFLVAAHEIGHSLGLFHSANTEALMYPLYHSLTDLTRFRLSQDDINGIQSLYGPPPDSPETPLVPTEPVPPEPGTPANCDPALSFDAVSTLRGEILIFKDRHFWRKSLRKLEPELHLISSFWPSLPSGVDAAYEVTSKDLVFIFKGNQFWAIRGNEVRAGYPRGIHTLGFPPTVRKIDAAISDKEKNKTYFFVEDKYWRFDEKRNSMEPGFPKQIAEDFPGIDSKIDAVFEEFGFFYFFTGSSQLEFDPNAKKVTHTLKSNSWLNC

SMILES	Ki [1]	Ki [2]	Ki [3]
O=C(CC(CCc1ccccc1C(=O)NCCc1ccccc1)C(=O)O)c1ccc(-c2ccc(Cl)cc2)cc1 (stereo not drawn) [Compound I, 4'-chloro-γ-oxo-α-[2-[2-[[(2-phenylethyl)amino]carbonyl]phenyl]ethyl]-[1,1'-biphenyl]-4-butanoic acid]	0.127 µM	0.173 µM	0.0411 µM
O=C(CC(CCc1cccc(C(=O)N2CCOCC2)c1)C(=O)O)c1ccc(-c2ccc(Cl)cc2)cc1 (stereo not drawn) [Compound X, 4'-chloro-α-[2-[3-(4-morpholinylcarbonyl)phenyl]ethyl]-γ-oxo-[1,1'-biphenyl]-4-butanoic acid]	0.0738 µM	0.251 µM	0.0261 µM
O=C(CC(CCc1ccc(C(=O)NCCc2ccccc2)cc1)C(=O)O)c1ccc(-c2ccc(Cl)cc2)cc1 (stereo not drawn) [Compound XX, 4'-chloro-γ-oxo-α-[2-[4-[[(2-phenylethyl)amino]carbonyl]phenyl]ethyl]-[1,1'-biphenyl]-4-butanoic acid]		2 µM	0.446 µM
O=C(CC(CCc1ccc(C(=O)N2CCCCC2)cc1)C(=O)O)c1ccc(-c2ccc(Cl)cc2)cc1 (stereo not drawn) [Compound XXI, 4'-chloro-γ-oxo-α-[2-[4-(1-piperidinylcarbonyl)phenyl]ethyl]-[1,1'-Biphenyl]-4-butanoic acid]	0.242 µM	0.806 µM	0.0841 µM
O=C(O)CNC(=O)c1ccccc1CCC(CC(=O)c1ccc(-c2ccc(Cl)cc2)cc1)C(=O)O (stereo not drawn) [Compound XXIII, α-[2-[2-[[(2-carboxymethyl)amino]carbonyl]phenyl]ethyl]-4'-chloro-γ-oxo-[1,1'-biphenyl]-4-butanoic acid]	0.259 µM	1.59 µM	0.096 µM
O=C(O)CCNC(=O)c1ccccc1CCC(CC(=O)c1ccc(-c2ccc(Cl)cc2)cc1)C(=O)O (centres unmarked) [Compound XXII]	0.166 µM	1.13 µM	0.0635 µM
O=C(O)CNC(=O)c1ccc(CCC(CC(=O)c2ccc(-c3ccc(Cl)cc3)cc2)C(=O)O)cc1 (stereo not drawn) [Compound XXIV, α-[2-[4[[(carboxymethyl)amino]carbonyl]phenyl]ethyl]-4'-chloro-γ-oxo-[1,1'-biphenyl]-4-butanoic acid]	0.293 µM	0.915 µM	0.0824 µM
CCCCCOc1ccc(-c2ccc(C(=O)CC(CCc3cccc(C(=O)N4CCCCC4)c3)C(=O)O)cc2)cc1 (stereo not drawn) [Compound XXXI, γ-oxo-4'-(pentyloxy)-α-[2-[3-(1-piperidinylcarbonyl)phenyl]ethyl]-[1,1'-biphenyl]-4-butanoic acid]	0.0358 µM	0.373 µM	0.017 µM
O=C(CC(CCc1cccc(C(=O)N2CCCCC2)c1)C(=O)O)c1ccc(-c2ccc(OCc3ccccc3)cc2)cc1 (centres unmarked) [Compound XXX]	0.0125 µM	0.102 µM	0.00444 µM
O=C(CC(CCc1ccccc1C(=O)NCc1ccccc1)C(=O)O)c1ccc(-c2ccc(Cl)cc2)cc1 (stereo not drawn) [III, 4'-chloro-γ-oxo-α-[2-[2-[[(phenylmethyl)amino]carbonyl]phenyl]ethyl]-[1,1'-biphenyl]-4-butanoic acid]	0.174 µM	0.475 µM	0.0603 µM
O=C(CC(CCc1ccccc1C(=O)NCCCc1ccccc1)C(=O)O)c1ccc(-c2ccc(Cl)cc2)cc1 (stereo not drawn) [IV, 4'-chloro-γ-oxo-α-[2-[2-[[(3-phenylpropyl)amino]carbonyl]phenyl]ethyl]-[1,1'-biphenyl]-4-butanoic acid]	0.175 µM	0.246 µM	0.0687 µM
CCOC(=O)CN(C)C(=O)c1ccccc1CCC(CC(=O)c1ccc(-c2ccc(Cl)cc2)cc1)C(=O)O (stereo not drawn) [IX, 4'-chloro-α-[2-[2-[[(2-ethoxy-2-oxoethyl)methylamino]carbonyl]phenyl]ethyl]-γ-oxo-[1,1'-biphenyl]-4-butanoic acid]	0.0436 µM	0.254 µM	0.0175 µM
O=C(CC(CCc1ccccc1C(=O)N1CCCCC1)C(=O)O)c1ccc(-c2ccc(Cl)cc2)cc1 (stereo not drawn) [V, 4'-chloro-γ-oxo-α-[2-[2-(1-piperidinylcarbonyl)phenyl]ethyl]-[1,1'-biphenyl]-4-butanoic acid]	0.0547 µM	0.146 µM	0.0138 µM
CC(C)CCNC(=O)c1ccccc1CCC(CC(=O)c1ccc(-c2ccc(Cl)cc2)cc1)C(=O)O (stereo not drawn) [VI, 4'-chloro-α-[2-[2-[[(3-methylbutyl)amino]carbonyl]phenyl]ethyl]-γ-oxo-[1,1'-biphenyl]-4-butanoic acid]	0.214 µM	0.431 µM	0.0581 µM
CCOC(=O)CNC(=O)c1ccccc1CCC(CC(=O)c1ccc(-c2ccc(Cl)cc2)cc1)C(=O)O (stereo not drawn) [VIII, 4'-chloro-α-[2-[2-[[(2-ethoxy-2-oxo-ethyl)amino]carbonyl]phenyl]ethyl]-γ-oxo-[1,1'-biphenyl]-4-butanoic acid]	0.165 µM	0.806 µM	0.0568 µM
O=C(CC(CCc1cccc(C(=O)NCCc2ccccc2)c1)C(=O)O)c1ccc(-c2ccc(Cl)cc2)cc1 (stereo not drawn) [XII, 4'-chloro-γ-oxo-α-[2-[3-[[(2-phenylethyl)amino]carbonyl]phenyl]ethyl]-[1,1'-biphenyl]-4-butanoic acid]	0.45 µM	2.65 µM	0.125 µM
O=C(CC(CCc1cccc(C(=O)NCCCc2ccccc2)c1)C(=O)O)c1ccc(-c2ccc(Cl)cc2)cc1 (stereo not drawn) [XIII, 4'-chloro-γ-oxo-α-[2-[3[[(3-phenylpropyl)amino]carbonyl]phenyl]ethyl]-[1,1'-biphenyl]-4-butanoic acid]	0.236 µM	0.552 µM	0.157 µM
